Experimental findings from patent US20260015350A1, “AZAQUINAZOLINE PAN-KRAS INHIBITORS” (Mirati Therapeutics, Inc., priority 2022, published 2026) are described below.

The test system of assay [1] is KRas-mediated phosphorylation of ERK in MKN1 cells. In words: Inhibition of KRas-mediated phosphorylation of ERK (Cisbio HTRF pERK), MKN1 cells. Type of assay: cell-based. The settings on record: Homo sapiens, MKN-1. In short, it runs like this:
(§1)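 HTRF pERK read-out; 6,000 cells/well, RPMI_10% FBS, overnight 37° C./5% CO2; 4 h covered incubation at RT before reading.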

For a further assay, the target named is T1, KRas^G12V (Homo sapiens, UniProt P01116, G12V).
T1 construct: Biotinylated KRas (corresponding to amino acids 1-169, produced at Accelegan Inc.); biotin (biotinylated); purchased Accelegan Inc
T1 sequence (P01116 1-169 isoform P01116-2 G12V): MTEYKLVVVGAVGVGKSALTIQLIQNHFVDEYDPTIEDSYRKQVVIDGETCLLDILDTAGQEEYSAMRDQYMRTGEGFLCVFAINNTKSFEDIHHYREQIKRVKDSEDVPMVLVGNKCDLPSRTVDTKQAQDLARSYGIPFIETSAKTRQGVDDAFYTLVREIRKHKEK
As to the kind of experiment: KRas binding assay (TR-FRET tracer displacement), KRas G12V.

A further assay deals with T2, KRas^G12R (Homo sapiens, UniProt P01116, G12R).
T2 construct: Biotinylated KRas (corresponding to amino acids 1-169, produced at Accelegan Inc.); biotin (biotinylated); purchased Accelegan Inc
T2 sequence (P01116 1-169 isoform P01116-2 G12R): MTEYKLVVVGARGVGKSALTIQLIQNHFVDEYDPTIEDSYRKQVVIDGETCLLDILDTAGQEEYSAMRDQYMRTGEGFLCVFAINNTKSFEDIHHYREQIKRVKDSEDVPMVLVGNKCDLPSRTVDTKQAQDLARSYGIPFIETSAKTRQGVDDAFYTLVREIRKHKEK
As to the kind of experiment: KRas binding assay (TR-FRET tracer displacement), KRas G12R.

For assay [2], the system named is KRas-mediated phosphorylation of ERK in H727 cells. As to the kind of experiment: Inhibition of KRas-mediated phosphorylation of ERK (Cisbio HTRF pERK), H727 cells. In kind it is cell-based. As to conditions: Homo sapiens; for IC50: NCI-H727, H727 cells, HTRF pERK. In a few lines:
(§2)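 Min control wells contained 0.2 uM Trametinib, while test compounds ran as 10 doses (3-fold, top 10 uM; 0.8% DMSO final) on cells for 3 hrs. After 40 mins lysis at 4° C, lysates were probed with HTRF antibodies for 2 hrs at room temperature.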

For the next assay, the target named is T3, KRas^G12D (Homo sapiens, UniProt P01116, G12D).
T3 construct: Biotinylated KRas (corresponding to amino acids 1-169, produced at Accelegan Inc.); biotin (biotinylated); purchased Accelegan Inc
T3 sequence (P01116 1-169 isoform P01116-2 G12D): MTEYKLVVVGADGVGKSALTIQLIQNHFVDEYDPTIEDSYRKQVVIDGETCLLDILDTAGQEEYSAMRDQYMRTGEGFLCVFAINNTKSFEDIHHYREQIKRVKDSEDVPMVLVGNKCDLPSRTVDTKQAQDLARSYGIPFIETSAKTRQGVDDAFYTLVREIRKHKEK
In words: KRas binding assay (TR-FRET tracer displacement), KRas G12D.

Another assay has as its target T4, KRas^G13D (Homo sapiens, UniProt P01116, G13D).
T4 construct: Biotinylated KRas (corresponding to amino acids 1-169, produced at Accelegan Inc.); biotin (biotinylated); purchased Accelegan Inc
As to the kind of experiment: KRas binding assay (TR-FRET tracer displacement), KRas G13D. The settings on record: TR-FRET tracer displacement, KRas G13D.

Another assay deals with T5, KRas^WT (Homo sapiens, UniProt P01116).
T5 construct: Biotinylated KRas (corresponding to amino acids 1-169, produced at Accelegan Inc.); biotin (biotinylated); purchased Accelegan Inc
T5 sequence (P01116 1-169 isoform P01116-2): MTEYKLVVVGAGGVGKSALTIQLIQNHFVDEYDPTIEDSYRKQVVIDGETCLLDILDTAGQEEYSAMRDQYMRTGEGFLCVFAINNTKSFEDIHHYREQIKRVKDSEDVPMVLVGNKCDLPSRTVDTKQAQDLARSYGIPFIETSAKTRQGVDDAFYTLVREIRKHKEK
As to the kind of experiment: KRas binding assay (TR-FRET tracer displacement), KRas WT. The settings on record: TR-FRET tracer displacement, KRas WT.

A further assay has as its target T6, KRas^Q61H (Homo sapiens, UniProt P01116, Q61H).
T6 construct: Biotinylated KRas (corresponding to amino acids 1-169, produced at Accelegan Inc.); biotin (biotinylated); purchased Accelegan Inc
In words: KRas binding assay (TR-FRET tracer displacement), KRas Q61H. As to conditions: TR-FRET tracer displacement, KRas Q61H.

For assay [3], the system named is KRas-mediated phosphorylation of ERK in PSN1 cells. As to the kind of experiment: Inhibition of KRas-mediated phosphorylation of ERK (Cisbio HTRF pERK), PSN1 cells. The settings on record: Homo sapiens. Type of assay: cell-based. In a few lines: as §1
For the next assay, the target named is T7, KRas^G12A (Homo sapiens, UniProt P01116, G12A).
T7 construct: Biotinylated KRas (corresponding to amino acids 1-169, produced at Accelegan Inc.); biotin (biotinylated); purchased Accelegan Inc
T7 sequence (P01116 1-169 isoform P01116-2 G12A): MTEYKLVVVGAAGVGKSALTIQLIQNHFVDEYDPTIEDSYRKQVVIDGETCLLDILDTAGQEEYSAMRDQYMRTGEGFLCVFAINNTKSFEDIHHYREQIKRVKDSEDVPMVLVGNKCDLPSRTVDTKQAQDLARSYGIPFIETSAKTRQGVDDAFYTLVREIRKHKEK
As to the kind of experiment: KRas binding assay (TR-FRET tracer displacement), KRas G12A. The settings on record: TR-FRET tracer displacement, KRas G12A.

The target of another assay is T8, KRas^G12C (Homo sapiens, UniProt P01116, G12C).
T8 construct: Biotinylated KRas (corresponding to amino acids 1-169, produced at Accelegan Inc.); biotin (biotinylated); purchased Accelegan Inc
T8 sequence (P01116 1-169 isoform P01116-2 G12C): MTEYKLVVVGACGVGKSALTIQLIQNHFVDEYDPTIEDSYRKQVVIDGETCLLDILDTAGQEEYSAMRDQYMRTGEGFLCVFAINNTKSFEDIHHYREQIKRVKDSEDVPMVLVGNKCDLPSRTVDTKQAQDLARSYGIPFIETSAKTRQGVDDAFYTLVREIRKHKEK
In words: KRas binding assay (TR-FRET tracer displacement), KRas G12C. The settings on record: TR-FRET tracer displacement, KRas G12C.

For assay [4], the system named is KRas-mediated phosphorylation of ERK in AsPC-1 cells. As to the kind of experiment: Inhibition of KRas-mediated phosphorylation of ERK (Cisbio HTRF pERK), AsPC-1 cells. Type of assay: cell-based. As to conditions: Homo sapiens; for IC50: ASPC1, AsPC-1 cells, HTRF pERK. In short, it runs like this: as §2
The target of the next assay is T9, KRas^G12S (Homo sapiens, UniProt P01116, G12S).
T9 construct: Biotinylated KRas (corresponding to amino acids 1-169, produced at Accelegan Inc.); biotin (biotinylated); purchased Accelegan Inc
T9 sequence (P01116 1-169 isoform P01116-2 G12S): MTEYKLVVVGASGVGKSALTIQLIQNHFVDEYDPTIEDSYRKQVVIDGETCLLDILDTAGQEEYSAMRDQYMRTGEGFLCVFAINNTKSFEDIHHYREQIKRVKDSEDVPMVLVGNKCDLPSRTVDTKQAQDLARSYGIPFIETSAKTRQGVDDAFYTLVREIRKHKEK
In words: KRas binding assay (TR-FRET tracer displacement), KRas G12S. The settings on record: TR-FRET tracer displacement, KRas G12S.

Assay [5] has as its system KRas-mediated phosphorylation of ERK in A549 cells. As to the kind of experiment: Inhibition of KRas-mediated phosphorylation of ERK (Cisbio HTRF pERK), A549 cells. In kind it is cell-based. As to conditions: Homo sapiens; for IC50: HTRF pERK; for inhibition at 0.1 µM: A549, 3 h, single point, 100 nM compound, 3 hrs. In short, it runs like this: (§3)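 Cells were seeded at 6,000 per well and treated for 3 hrs with compound in a 10-dose, 3-fold series from 10 uM (0.8% final DMSO), with 0.2 uM Trametinib as Min control. Lysates made at 4° C over 40 mins were incubated 2 hrs at room temperature with d2- and Cryptate-labelled antibodies, then read by HTRF.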

In assay [6] the test system is KRas-mediated phosphorylation of ERK in HCT116 cells. As to the kind of experiment: Inhibition of KRas-mediated phosphorylation of ERK (Cisbio HTRF pERK), HCT116 cells. Type of assay: cell-based. The settings on record: Homo sapiens; for IC50: HCT-116, HTRF pERK; for inhibition at 0.1 µM: HCT-116, 3 h, single point, 100 nM compound, 3 hrs. In short, it runs like this:
as §3

Assay [7] concerns KRas-mediated phosphorylation of ERK in H460 cells. As to the kind of experiment: Inhibition of KRas-mediated phosphorylation of ERK (Cisbio HTRF pERK), H460 cells. The settings on record: Homo sapiens; for inhibition at 0.1 µM: NCI-H460, 3 h, single point, 100 nM compound, 3 hrs. In kind it is cell-based. In a few lines: as §2
In assay [8] the test system is KRas-mediated phosphorylation of ERK in H358 cells. As to the kind of experiment: Inhibition of KRas-mediated phosphorylation of ERK (Cisbio HTRF pERK), H358 cells. Type of assay: cell-based. As to conditions: Homo sapiens; for inhibition at 0.1 µM: NCI-H358, 3 h, single point, 100 nM compound, 3 hrs. In a few lines:
as §2

Each structure is given as a SMILES string.

T4 sequence (P01116 1-169 isoform P01116-2 G13D): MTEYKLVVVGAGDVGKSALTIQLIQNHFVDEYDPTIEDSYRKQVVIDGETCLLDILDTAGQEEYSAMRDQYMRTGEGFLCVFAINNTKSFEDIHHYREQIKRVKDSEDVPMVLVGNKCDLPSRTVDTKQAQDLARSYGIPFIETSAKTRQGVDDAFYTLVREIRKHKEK
T6 sequence (P01116 1-169 isoform P01116-2 Q61H): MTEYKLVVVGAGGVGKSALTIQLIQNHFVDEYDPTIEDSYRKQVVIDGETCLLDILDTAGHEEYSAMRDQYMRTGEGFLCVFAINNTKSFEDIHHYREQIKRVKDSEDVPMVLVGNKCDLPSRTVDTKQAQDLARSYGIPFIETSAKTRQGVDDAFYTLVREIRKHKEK

For `Cc1cc2[nH]ncc2c(-c2ncc3c(N4CCCC5(C4)NC(=O)NC5=O)nc(OCC45CCCN4CCC5)nc3c2F)c1C` (centres unmarked) [Example 728, 7-(7-(5,6-dimethyl-1H-indazol-4-yl)-8-fluoro-2-((hexahydro-1H-pyrrolizin-7a-yl)methoxy)pyrido[4,3-d]pyrimidin-4-yl)-1,3,7-triazaspiro[4.5]decane-2,4-dione], the half-maximal inhibitory concentration (IC50) in assay [1] was over 10000 nM; on KRas^G12V it was 23 nM; at KRas^G12R, 34 nM; in assay [2] it was 2510 nM; on KRas^G12D, 60 nM; on KRas^G13D it was 37 nM. Moreover, the IC50 is 34 nM at KRas^WT; 40 nM on KRas^Q61H; over 10000 nM in assay [3]; 35 nM on KRas^G12A; 31 nM on KRas^G12C; 2510 nM in [4]. On KRas^G12S, this molecule displayed a 50% inhibitory concentration (IC50) of 31 nM.

As for `Oc1cc(Cl)c(C2CC2)c(-c2ncc3c(N4CCC[C@]5(C4)C[C@H](O)C5)nc(OCC45CCCN4CCC5)nc3c2F)c1` [Example 742, (2s,4r)-6-(7-(3-chloro-2-cyclopropyl-5-hydroxyphenyl)-8-fluoro-2-((tetrahydro-1H-pyrrolizin-7a(5H)-yl)methoxy)pyrido[4,3-d]pyrimidin-4-yl)-6-azaspiro[3.5]nonan-2-ol], the IC50 in assay [1] was 624 nM; on KRas^G12V it was under 2 nM; on KRas^G12R, under 2 nM; in assay [5], 2610 nM; in assay [2] it was 292 nM; in [6], 1790 nM. In addition, the 50% inhibitory concentration (IC50) on KRas^G12D is under 2 nM; on KRas^G13D, 3 nM; on KRas^WT, 3 nM; at KRas^Q61H it was under 2 nM; in assay [3], over 10000 nM; at KRas^G12A, under 2 nM. Also, the results for the half-maximal inhibitory concentration (IC50) (at KRas^G12C; in assay [4]; on KRas^G12S) were under 2 nM, 1600 nM and 2 nM, respectively.

As for `Oc1cc(-c2ncc3c(N4C[C@@H]5C[C@H](C4)[C@H](O)C5)nc(OC[C@@]45CCCN4C[C@H](F)C5)nc3c2F)c2ccc(Cl)cc2c1` [Example 763, (1R,5R,6R)-3-(7-(6-chloro-3-hydroxynaphthalen-1-yl)-8-fluoro-2-(((2R,7aS)-2-fluorohexahydro-1H-pyrrolizin-7a-yl)methoxy)pyrido[4,3-d]pyrimidin-4-yl)-3-azabicyclo[3.2.1]octan-6-ol], the inhibition at 0.1 µM in [7] was 13%; in assay [5], -11%; in assay [6] it was 5%; in [8], -25%. Also, the IC50 was 23 nM at KRas^G12V; 18 nM at KRas^G12R; 498 nM in [2]; 70 nM at KRas^G12D; 36 nM at KRas^G13D; 36 nM at KRas^WT. In addition, the IC50 on KRas^Q61H came to 45 nM; at KRas^G12A, 25 nM; on KRas^G12C, 33 nM; in assay [4] it was 1250 nM; on KRas^G12S, 20 nM.

For the molecule `CCc1cccc2cc3[nH]ncc3c(-c3ncc4c(N5CCCC6(CNS(=O)(=O)N6)C5)nc(OC[C@@]56CCCN5C[C@H](F)C6)nc4c3F)c12` (stereo partly drawn) [Example 772, 7-(7-(5-ethyl-1H-benzo[f]indazol-4-yl)-8-fluoro-2-(((2R,7aS)-2-fluorohexahydro-1H-pyrrolizin-7a-yl)methoxy)pyrido[4,3-d]pyrimidin-4-yl)-2-thia-1,3,7-triazaspiro[4.5]decane 2,2-dioxide], the inhibition at 0.1 µM in assay [7] was 19%; in [5] it was 22%; in [6], 3%; in assay [8] it was -4%. The IC50 was found to be 5 nM at KRas^G12V; 12 nM on KRas^G12R; 2670 nM in [2]; 7 nM on KRas^G12D; 4 nM at KRas^G13D; 4 nM on KRas^WT. Moreover, the IC50 on KRas^Q61H worked out at 3 nM; at KRas^G12A it was 5 nM; at KRas^G12C, 7 nM; in assay [4] it was 2230 nM; at KRas^G12S, 5 nM.

`O=C1NC(=O)[C@]2(CCCN(c3nc(OC[C@@]45CCCN4C[C@H](F)C5)nc4c(F)c(-c5c(C6CC6)c(Cl)cc6[nH]ncc56)ncc34)C2)N1` [Example 780, (5R)-7-(7-(6-chloro-5-cyclopropyl-1H-indazol-4-yl)-8-fluoro-2-(((2R,7aS)-2-fluorohexahydro-1H-pyrrolizin-7a-yl)methoxy)pyrido[4,3-d]pyrimidin-4-yl)-1,3,7-triazaspiro[4.5]decane-2,4-dione]: the inhibition at 0.1 µM in assay [7] is -8%; in assay [5], 21%; in assay [2] (NCI-H727, 3 h, single point, 100 nM compound, 3 hrs, H727 cells) it was 30%; in [6] it was -2%; in assay [8], 42%; in [4] (ASPC1, 3 h, single point, 100 nM compound, 3 hrs, AsPC-1 cells), -12%. Besides, the IC50 in [7] (NCI-H460, HTRF pERK) was 246 nM; on KRas^G12V, under 2 nM; at KRas^G12R it was under 2 nM; in [5], 412 nM; in assay [2] it was 340 nM; in assay [6], 557 nM. The IC50 is under 2 nM on KRas^G12D; under 2 nM on KRas^G13D; under 2 nM on KRas^WT; under 2 nM on KRas^Q61H; under 2 nM on KRas^G12A; 33 nM in assay [8] (NCI-H358, HTRF pERK). For the same molecule, the IC50 at KRas^G12C is under 2 nM; in assay [4] it was 784 nM; at KRas^G12S, under 2 nM.

As for `CN(C)C(=O)c1cc2n(n1)CCCN(c1nc(OCC34CCCN3CCC4)nc3c(F)c(-c4c(C5CC5)c(Cl)cc5[nH]ncc45)ncc13)C2` [Example 881, 5-(7-(6-chloro-5-cyclopropyl-1H-indazol-4-yl)-8-fluoro-2-((tetrahydro-1H-pyrrolizin-7a(5H)-yl)methoxy)pyrido[4,3-d]pyrimidin-4-yl)-N,N-dimethyl-5,6,7,8-tetrahydro-4H-pyrazolo[1,5-a][1,4]diazepine-2-carboxamide], the concentration for half-maximal inhibition (IC50) in assay [1] was over 10000 nM; on KRas^G12V it was 4 nM; on KRas^G12R, 11 nM; in assay [2], over 10000 nM; at KRas^G12D, 2 nM; at KRas^G13D, 25 nM. Also, the IC50 was 22 nM on KRas^WT; 22 nM on KRas^Q61H; over 10000 nM in assay [3]; 14 nM at KRas^G12A; 7 nM at KRas^G12C; over 10000 nM in [4]. This molecule returned an IC50 at KRas^G12S of 7 nM.
